Values belong to the compound of their own block, whether it stands above or below them.
Key:
[1] = tested on: differentiated 3T3-L1 adipocytes; test: Stimulation of decomposition of triglyceride in adipocytes (GPO-trinder kit); assay type: cell-based, mouse; conditions: control = 100%; caffeine 50 μM
Description: Mouse fibroblast 3T3-L1 cells were seeded into a 6-well culture plate containing 10% fetal bovine serum (FBS)-containing DMEM (Dulbeco's modified eagle's medium, GIBCO BRL, Life Technologes) at a density of 1×10^5 cells/well. After 2 days, the medium was replaced with fresh DMEM (containing 10% FBS), followed by culture for 2 days. Then, the cultured cells were treated with DMEM (containing 10% FBS) containing 1 μg/ml insulin, 0.5 mM IBMX and 0.25 μM dexamethasone to induce differentiation, and after 2 days, the medium was replaced with insulin-containing DMEM, followed by incubation for 5 days. After 5 days, the medium was replaced with normal medium (DMEM containing 10% FBS), and the cells were incubated until the cells morphologically differentiated into adipocytes. In order to evaluate the effect of the paper mulberry extract on the stimulation of decomposition of triglyceride in adipocytes, a test was carried out using the differentiated […] adipocytes. The 3T3-L1 adipocytes were washed twice with PBS (phosphate buffered saline), and colorless DMEM containing 0.5% fatty acid-free bovine serum albumin (BSA) was added to the cells, and a fraction of the cells was taken and used in the test. As a control, a medium not treated with the test material or the positive control was used. […] (Sigma, St. Louis, Mo., U.S.A.), and the absorbance at 540 nm was measured using an ELISA reader.

[2] = tested on: differentiated 3T3-L1 adipocytes; test: Inhibition of lipogenesis (Sudan III staining of adipocytes); assay type: cell-based, mouse; parameters: key: expressed as +++, ++ and + depending on the degree of staining; expressed as +++, ++ and + depending on the degree of staining; expressed as +++, ++ and + depending on the degree of staining; conditions: Sudan III staining grade; positive control 50 μM caffeine
Description: Mouse fibroblast 3T3-L1 cells were seeded into a 6-well culture plate containing 10% fetal bovine serum (FBS)-containing DMEM (Dulbeco's modified eagle's medium (GIBCO BRL, Life Technologes) at a density of 1×10^5 cells/well. After 2 days, the medium was replaced with fresh DMEM (containing 10% FBS), followed by culture for 2 days. Then, the cultured cells were treated with DMEM (containing 10% FBS) containing 1 μg/ml insulin, 0.5 mM IBMX and 0.25 μM dexamethasone to induce differentiation, and after 2 days, the medium was replaced with insulin-containing DMEM, followed by incubation for 5 days. After 5 days, the medium was replaced with normal medium (DMEM containing 10% FBS), and the cells were incubated until the cells morphologically differentiated into adipocytes. In order to measure the effect of the paper mulberry extract on the inhibition of the accumulation of fat in adipocytes, the differentiated 3T3-L1 adipocytes were subjected to Sudan III staining ([…], Sigma-Aldrich). The adipocytes were fixed with 4% paraformaldehyde (pH 7.2) in phosphate buffer at room temperature, and then washed with PBS (phosphate buffered saline), after which the cells were stained with Sudan III and photographed for visual comparison. […] The degree of inhibition of fat accumulation was expressed as +++, ++ and + depending on the degree of staining.

[3] = target: T1, elastase type III (Sus scrofa, UniProt P00772); test: Inhibition of elastase activity; assay type: biochemical; conditions: elastase test; extract 10 mg/L, EGCG 250 μM; untreated negative control = 100
T1 construct: purchased Sigma Aldrich E0127
T1 sequence (P00772 27-266): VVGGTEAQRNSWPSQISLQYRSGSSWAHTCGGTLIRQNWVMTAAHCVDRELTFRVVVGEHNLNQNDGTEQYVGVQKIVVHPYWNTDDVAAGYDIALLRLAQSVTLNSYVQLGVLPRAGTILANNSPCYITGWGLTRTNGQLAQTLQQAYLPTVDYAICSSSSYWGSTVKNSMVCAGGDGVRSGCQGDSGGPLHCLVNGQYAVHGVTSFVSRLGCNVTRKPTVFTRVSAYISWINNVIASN
Description: The elastase inhibitory activity of the paper mulberry extract prepared in Preparation Example 1 was measured in comparison with that of EGCG. The elastase and substrate used were commercially purchased from Sigma Aldrich (Cat. No. E0127, USA). The elastase inhibitory activity was measured in the following manner. […] Then, 100 μL of 0.4514 mg/mL N-SUCCINYL-[…]-NITROANILIDE in the same buffer used above was added to the plate and allowed to react at 25° C. for 15 minutes. After completion of the reaction, the absorbance at 415 nm was measured. For correction, a blank test was carried out in the same manner. The elastase inhibitory activity was calculated using the following equation. Elastase activity inhibition(%)={1-(C-D)/(A-B)}×100 wherein A: absorbance at 415 nm in the case in which the test sample was not added and the enzyme was added; B: absorbance at 415 nm in the case in which the test sample was not added and the enzyme was not added; C: absorbance at 415 nm in the case in which the test sample was added and the enzyme was added; and D: absorbance at 415 nm in the case in which the test sample was added and the enzyme was not added.

[4] = tested on: MITF expression in Melan-a melanocyte cell line MITF-GLuc; test: Stimulation of MITF expression in transformed melanocytes (GLuc reporter); assay type: cell-based; conditions: 100 μM, 3 days
Description: To examine the gray preventing effect of the paper mulberry extract, the effect of the paper mulberry extract on the stimulation of MITF expression was examined as disclosed in Korean Patent Application No. 10-2007-0072182 (entitled “A method for screening a gray hair-preventing substance using a transformed cell line and leukoplakia mice and a composition for preventing gray hair containing the gray hair-preventing substance”). The Melan-a melanocyte cell line MITF-GLuc (accession number: KCLRF-BP-00162) transformed with the expression vector pMITF-GLuc was cultured in RPMI 1640 medium containing 10% fetal bovine serum (FBS), 100 unit/ml penicillin-streptomycin (Gibco), 0.1 μM TPA (Sigma) and 400 μg/ml G418 under the conditions of 37° C. and 10% CO2. The positive control IBMX was purchased from Sigma and used at a concentration of 100 μM. […] After the incubation, to quantify the amount of GLuc, a small amount of the medium was taken, transferred to a measurement plate and allowed to react with a substrate. Specifically, a small amount of the medium was taken from the cell culture dish and transferred to a measurement plate, after which 1× GLuc assay working solution (NEB) was added to the medium at a ratio of 4:1, and the amount of light emitted at […] was measured using a luminometer.

[5] = tested on: Leukoplakia mice (C57bl/6-Mitf^mi-vit); test: Gray hair prevention and black hair induction in leukoplakia mice (melanin in hair); assay type: in vivo; conditions: topical twice a day, about 3 weeks; extract 2.5%, IBMX 50 mM in vehicle
Description: Leukoplakia mice (C57bl/6-Mitf^mi-vit) were purchased from The Jackson Lab (USA) and used. The effect of the paper mulberry extract on gray hair prevention in the mice was tested in the following manner. The back of 12-week-old mice was depilated such that the depilated area was the same between the mice. From the day following the depilation day, gray hair-preventing substances were applied to the depilated area twice a day. As a vehicle for the gray hair-preventing substance, a mixture of EtOH:1,3-BG:DW=3:2:5 (volume ratio) was used. […] After about 3 weeks, the difference in gray hair prevention effect between the materials has been distinguished, newly grown hairs were collected and the amount of melanin in the hairs was measured using esperase (Novozyme). […] The reaction solution thus obtained was added to a 96-well plate, and the absorbance at 405 nm was measured, thereby measuring the amount of melanin in the reaction solution. As described above, the leukoplakia mouse model in which the occurrence of gray hair was stimulated was treated with each of the negative control, the positive control and the test sample, and the effects of the negative control, the positive control and the test sample were measured visually and by measuring the amount of melanin in the hair.

[6] = tested on: Collagenase (MMP-1); test: Collagenase (MMP-1) production in human fibroblasts (ELISA); assay type: cell-based; conditions: extract 10 μg/ml, 24 hours; control = 100
Description: The collagenase production inhibitory ability of the paper mulberry extract prepared in Preparation Example 1 was measured in comparison with that of retinoic acid.
Human fibroblasts were added to a 96-well microtiter plate containing 2.5% fetal bovine serum-containing DMEM (Dulbecco's Modified Eagle's Media) at a density of 5,000 cells/well and were cultured in a 5% CO2 incubate at 37° C. to a confluence of about 70-80%. Then, the cell culture was treated with 10 μg/ml of the paper mulberry extract of Preparation Example 1 for 24 hours and collected.
The production of collagenase in the collected cell culture was measured using a commercially available collagenase measurement instrument (Catalog #: RPN 2610, Amersham Pharmacia, USA). […]
The absorbance of the yellowish 96-well plate at 405 nm was measured using a spectrophotometer, and based on the measurements, the degree of synthesis of collagenase was calculated using the following equation 1. Herein, the absorbance of a cell culture collected from a group not treated with the test sample was used as a control.
Collagenase expression(%)=(absorbance of cell group treated with material/absorbance of control)×100 Equation 1

[7] = tested on: prostaglandin production in macrophages; test: Inhibition of prostaglandin production in LPS-treated macrophages (ELISA); assay type: cell-based, mice; conditions: percentage relative to 100% for the difference between LPS-treated and non-LPS-treated group
Description: Anti-inflammatory effect was evaluated based on the inhibition of prostaglandin production. The anti-inflammatory effect of the paper mulberry extract of Preparation Example 1 was measured using macrophages. […] Then, 100 μl of the cell suspension was added to each well of a 96-well plate and cultured in a 5% CO2 incubator at 37° C. for 2 hours so that the macrophages were attached to the plate surface. Then, the attached macrophages were washed three times with PBS and used to test the effect of the extract. The cultured macrophages were added to 1%(w/v) LPS-containing RPMI medium at a concentration of 5×10^4 cells/ml and cultured for 12 hours to induce the production of prostaglandin, after which they were treated with 100 μl of the extract. Released prostaglandin was quantitatively analyzed by ELISA. Herein, the prostaglandin production inhibitory activity of the extract was expressed as the percentage of prostaglandin production in the group treated with LPS together with the sample relative to 100% for the difference in prostaglandin production between the LPS-treated group and the non-LPS-treated group.

[8] = target: T2, 5α-reductase in HEK293-5αR2 cells (Homo sapiens, UniProt P31213); test: Inhibition of 5α-reductase (testosterone to dihydrotestosterone conversion); assay type: cell-based; conditions: radioactivity in the DHT region/total radioactivity; extract 10 μg/ml, 2 hours
T2 construct: 3×FLAG; expressed in transfected cells; host or cells: HEK293
T2 sequence (P31213 1-254): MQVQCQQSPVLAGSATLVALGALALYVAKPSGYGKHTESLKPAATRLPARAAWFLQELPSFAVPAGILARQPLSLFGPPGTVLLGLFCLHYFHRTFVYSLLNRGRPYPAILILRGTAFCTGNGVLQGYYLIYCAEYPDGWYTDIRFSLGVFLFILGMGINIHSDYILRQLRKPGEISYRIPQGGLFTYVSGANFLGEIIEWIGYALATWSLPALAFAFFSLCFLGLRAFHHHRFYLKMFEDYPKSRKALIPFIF
Description: In order to examine the effect of inhibiting 5α-reductase activity, the ratio of [^14C]testosterone-to-[14^C]dihydrotestosteron conversion in HEK293-5αR2 cells was measured. HEK293 cells transfected with p3×FLAG-CMV-5αR2 were added to a 24-well plate at a density of 2.5×10^5 cells/well and cultured (Park et al., 2003, JDS. Vol. 31, ppl 91-98). The next day, the medium was replaced with fresh medium containing an enzyme substrate and an inhibitor. As the substrate of the medium, 0.05 μCi [^14C]testosterone (Amersham Pharmacia biotech, UK) was used. In order to measure the degree of inhibition, 10 μg/ml of the paper mulberry extract of Preparation Example 2 was added to the cells which were then incubated in a 5% CO2 incubator at 37° C. for 2 hours. As a positive control, finasteride was used. The culture medium was collected and, steroid was extracted with 800 μl of ethyl acetate. […]
The plastic sample was dried in air, and the amount of isotopes was measured using a Vas system. Specifically, the dried plastic sheet together with an X-ray film was placed in a Vas cassette, and after 1 week, the amounts of the testosterone and dihydrotestosterone isotopes were measured.

Compound: Cn1c(=O)c2c(ncn2C)n(C)c1=O [Caffeine, caffeine]
Level of released glycerol [1]: 115%
Inhibition (%) [2]: +

Expression (%) [3]: 90 ± 1.2%
Compound: O=C(O[C@@H]1Cc2c(O)cc(O)cc2O[C@@H]1c1cc(O)c(O)c(O)c1)c1cc(O)c(O)c(O)c1 [EGCG]

Compound: CC(C)Cn1c(=O)n(C)c(=O)c2[nH]cnc21 [IBMX]
Percentage (%) of gluciferase production relative to negative control [4]: 180%
Ratio (%) of amount of melanin in hair relative to negative control [5]: 105.9%

Compound: CC1=C(/C=C/C(C)=C/C=C/C(C)=C/C(=O)O)C(C)(C)CCC1 [Retinoic acid, retinoic acid]
Expression (%) (collagenase) [6]: 75 ± 3.4%

Compound: CC(=O)Oc1ccccc1C(=O)O [aspirin]
Prostaglandin production (inhibitory effect on prostaglandin production) [7]: 25.0%

Conversion (%) [8]: 27.6%
Compound: CC(C)(C)NC(=O)[C@H]1CC[C@H]2[C@@H]3CC[C@H]4NC(=O)C=C[C@]4(C)[C@H]3CC[C@]12C [finasteride]
